Publication PMC10630888, “Nuclear ERK1/2 signaling potentiation enhances neuroprotection and cognition via Importinα1/KPNA2” (EMBO Molecular Medicine, 2023)

Assays:
[1] = tested on: phospho-ERK1/2 in HEK293 cells; test: phospho-ERK1/2 immunofluorescence (nuclear) in HEK293 cells; type: cell-based; settings: HEK293, siRNA 200 nM 24 h, then RB5 50 μM 15 min
Procedure: For Western blot and immunofluorescence analysis, 0.6 × 10^6 HEK293 cells were seeded in 6‐well plates in the presence of DMEM High Glucose GlutaMax (Thermo Fisher Scientific) containing 10% Foetal Bovine Serum (FBS, Thermo Fisher Scientific) and 100 U/ml penicillin/streptomycin (Thermo Fisher Scientific). For Western blot analysis to assess ERK1/2 and phospho‐ERK1/2 levels, cells were serum starved for 24 h and incubated with RB5 50 μM or FBS 20% for 15 min at 37°C. To assess JNK and phospho‐JNK levels, cells were incubated with RB5 50 μM or anisomycin 5 μM for 30 min at 37°C. For immunofluorescence analysis, cells were serum‐starved for 24 h and incubated with 50 μM RB5 or 20% FBS for 15 min at 37°C.
After rinsing in PBS, cells were fixed in 4% PFA and permeabilized with increasing concentrations of methanol (33, 50, 75, and 95% in PBS, 2 min each at room temperature), followed by 100% methanol for 10 min at −20°C. […] The mean fluorescence intensity in the nucleus was calculated automatically by Fiji‐ImageJ software in 8–10 fields per slide. […]

[2] = molecular target: T1, ERK1/ERK2-KPNA5 interaction (Homo sapiens, UniProt O15131); test: Proximity ligation assay, ERK1 or ERK2 with KPNA5 in HEK293 cells; type: binding; settings: HEK293 cells pretreated with RB5 50 μM for 1 h
T1 construct: host or cells: HEK293
Procedure: 1.5 × 10^6 HEK293 cells were seeded onto coverslips in 60 mm dishes. 24 h later, transfection was carried out using calcium phosphate method. 0.5 μg of pCMVTNT‐T7‐KPNA1 (Addgene, #26677), 0.5 μg of pCMVTNT‐T7‐KPNA2 (Addgene, #26678), 0.5 μg of pCMVTNT‐T7‐KPNA3 (Addgene, #26679), 0.5 μg of pCMVTNT‐T7‐KPNA4 (Addgene, #26680), 0.5 μg of pCMVTNT‐T7‐KPNA5 (Addgene, #26681), 1.5 μg of pcDNA3.1+/C‐(K)‐DYK‐KPNA6 (Genscript, #OHu29951D), 0.5 μg of pCMVTNT‐T7‐KPNA7 (Addgene, #26683), 5 μg of pcDNA3.1 +/C‐(K)‐DYK‐IPO7 (Genscript, #OHu11630), 0.5 μg pCMV5‐3HA‐RanBP5 (MRC PPU, University of Dundee, #DU7262), 0.5 μg pCMV5‐3HA‐ KPNB1 (MRC PPU, University of Dundee, #DU5332) were mixed with one of the following plasmids: 0.01 μg of 277.pCCLsin.PPT.hPGK.GFP.PRE, 0.25 μg of 277.pCCLsin.PPT.hPGK.ERK1‐GFP.PRE or 0.25 μg of 277.pCCLsin.PPT.hPGK.ERK2‐GFP.PRE. After approximately 16 h, cell culture medium was replaced with fresh medium. On the following day, cells were washed three times in PBS and fixed in 4% PFA for 15 min. […]
The proximity ligation assay was carried out following the manufacturer's instructions. […] The number of GFP‐positive cells, DAPI‐stained cells, and red dots was counted manually using Fiji‐ImageJ software.

T1 sequence (O15131 whole entry): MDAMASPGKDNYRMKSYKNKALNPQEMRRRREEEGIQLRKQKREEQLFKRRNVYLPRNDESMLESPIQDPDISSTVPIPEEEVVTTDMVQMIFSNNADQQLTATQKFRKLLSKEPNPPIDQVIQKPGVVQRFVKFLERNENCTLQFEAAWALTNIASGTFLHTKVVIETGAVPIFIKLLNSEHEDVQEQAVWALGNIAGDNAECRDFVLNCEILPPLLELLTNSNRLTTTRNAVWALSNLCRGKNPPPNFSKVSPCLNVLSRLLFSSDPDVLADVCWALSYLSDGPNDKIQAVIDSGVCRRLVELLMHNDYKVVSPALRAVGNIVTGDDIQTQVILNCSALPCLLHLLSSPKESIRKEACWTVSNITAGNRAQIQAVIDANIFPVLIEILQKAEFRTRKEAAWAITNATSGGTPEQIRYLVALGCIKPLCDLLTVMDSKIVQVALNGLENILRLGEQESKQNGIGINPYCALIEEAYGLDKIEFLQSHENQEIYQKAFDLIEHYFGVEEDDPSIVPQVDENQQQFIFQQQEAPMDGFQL

GRKKRRQRRRPPQGGGGGEPRRTEGVGPGVPGEVEMVKGQPFDV [RB5, six D-amino acids, acetylated N-terminus]
ERK1/2 activation (nuclear phospho-ERK1/2) after KPNA2 or IPO7 downregulation [1]: failed to induce ERK1/2 activation
ERK1 or ERK2 binding to KPNA5 (PLA) [2]: unaffected
